In brackets after ≈: the same amount, converted by molar mass. Activity calls are given as the source filed them. No cut-off for these calls is given here.
What was measured:
Plasmodium berghei [1] = test: Ratio of quinine hydrochloride SD90 to compound SD90 for trophozoite-induced Plasmodium berghei infected in mouse assessed as daily dose required to suppression of 90% parasite infection administered with diet for 6 days; assay type: functional
Plasmodium gallinaceum [2] = test: Antimalarial activity against trophozoite-induced Plasmodium gallinaceum infected in white leghorn chicken assessed as increase in mean survival days of host at 40 mg/kg, sc administered 72 hrs after infection relative to control; assay type: functional; settings: route subcutaneous
Plasmodium berghei [3] = test: Antimalarial activity against Plasmodium berghei infected in mouse assessed as increase in mean survival days of host at 160 mg/kg, sc administered 72 hrs after infection relative to control; assay type: functional; settings: route subcutaneous
Plasmodium berghei [4] = test: Antimalarial activity against Plasmodium berghei infected in mouse assessed as increase in mean survival days of host at 10 mg/kg, sc administered 72 hrs after infection relative to control; assay type: functional; settings: route subcutaneous
Staphylococcus aureus [5] = test: Antibacterial activity against Staphylococcus aureus UC-96 by gradient plate test; assay type: functional
Plasmodium berghei [6] = test: Antimalarial activity against Plasmodium berghei infected in mouse assessed as disease cure from parasite infection at 160 mg/kg, sc administered 72 hrs after infection; assay type: functional, organism-based; design: dose 160 mg/kg
Shigella sonnei = test: Antibacterial activity against Shigella sonnei C-10 by gradient plate test; assay type: functional
Plasmodium berghei [7] = test: Antimalarial activity against Plasmodium berghei infected in mouse assessed as disease cure from parasite infection at 320 mg/kg, sc administered 72 hrs after infection; assay type: functional, organism-based; design: dose 320 mg/kg
Plasmodium gallinaceum [8] = test: Antimalarial activity against trophozoite-induced Plasmodium gallinaceum infected in white leghorn chicken assessed as increase in mean survival days of host at 80 mg/kg, sc administered 72 hrs after infection relative to control; assay type: functional; settings: route subcutaneous
Pseudomonas aeruginosa = test: Antibacterial activity against Pseudomonas aeruginosa 28 by gradient plate test; assay type: functional
Plasmodium berghei [9] = test: Antimalarial activity against Plasmodium berghei infected in mouse assessed as increase in mean survival days of host at 320 mg/kg, sc administered 72 hrs after infection relative to control; assay type: functional; settings: route subcutaneous
Plasmodium berghei [10] = test: Antimalarial activity against Plasmodium berghei infected in mouse assessed as increase in mean survival days of host at 5 mg/kg, sc administered 72 hrs after infection relative to control; assay type: functional; settings: route subcutaneous
Plasmodium berghei [11] = test: Antimalarial activity against Plasmodium berghei infected in mouse assessed as increase in mean survival days of host at 80 mg/kg, sc administered 72 hrs after infection relative to control; assay type: functional; settings: route subcutaneous
Staphylococcus aureus [12] = test: Antibacterial activity against drug-resistant Staphylococcus aureus S18713 by gradient plate test; assay type: functional
Gallus gallus [13] = test: Toxicity in sporozoite-induced Plasmodium gallinaceum infected white leghorn chicken assessed as mortality at 480 mg/kg, sc administered 72 hrs after infection measured up to 6 days; assay type: organism-based; design: dose 480 mg/kg, route subcutaneous; settings: in vivo
Plasmodium gallinaceum [14] = test: Antimalarial activity against sporozoite-induced Plasmodium gallinaceum infected in white leghorn chicken assessed as increase in mean survival days of host at 120 mg/kg, sc administered 72 hrs after infection relative to control; assay type: functional; settings: route subcutaneous
Enterococcus faecalis = test: Antibacterial activity against Streptococcus faecalis MGH-2 by gradient plate test; assay type: functional
Escherichia coli = test: Antibacterial activity against Escherichia coli Vogel by gradient plate test; assay type: functional
Gallus gallus [15] = test: Toxicity in sporozoite-induced Plasmodium gallinaceum infected white leghorn chicken assessed as mortality at 240 mg/kg, sc administered 72 hrs after infection measured up to 6 days; assay type: organism-based; design: dose 240 mg/kg, route subcutaneous; settings: in vivo
Plasmodium gallinaceum [16] = test: Antimalarial activity against trophozoite-induced Plasmodium gallinaceum infected in white leghorn chicken assessed as increase in mean survival days of host at 160 mg/kg, sc administered 72 hrs after infection relative to control; assay type: functional; settings: route subcutaneous
Plasmodium berghei [17] = test: Antimalarial activity against Plasmodium berghei infected in mouse assessed as increase in mean survival days of host at 20 mg/kg, sc administered 72 hrs after infection relative to control; assay type: functional; settings: route subcutaneous
Plasmodium berghei [18] = test: Antimalarial activity against Plasmodium berghei infected in mouse assessed as increase in mean survival days of host at 40 mg/kg, sc administered 72 hrs after infection relative to control; assay type: functional; settings: route subcutaneous
Plasmodium gallinaceum [19] = test: Antimalarial activity against trophozoite-induced Plasmodium gallinaceum infected in white leghorn chicken assessed as increase in mean survival days of host at 20 mg/kg, sc administered 72 hrs after infection relative to control; assay type: functional; settings: route subcutaneous
Plasmodium gallinaceum [20] = test: Antimalarial activity against trophozoite-induced Plasmodium gallinaceum infected in white leghorn chicken assessed as increase in mean survival days of host at 320 mg/kg, sc administered 72 hrs after infection relative to control; assay type: functional; settings: route subcutaneous
Plasmodium gallinaceum [21] = test: Antimalarial activity against sporozoite-induced Plasmodium gallinaceum infected in white leghorn chicken assessed as increase in mean survival days of host at 240 mg/kg, sc administered 72 hrs after infection relative to control; assay type: functional; settings: route subcutaneous
Plasmodium gallinaceum [22] = test: Antimalarial activity against trophozoite-induced Plasmodium gallinaceum infected in white leghorn chicken assessed as increase in mean survival days of host at 10 mg/kg, sc administered 72 hrs after infection relative to control; assay type: functional; settings: route subcutaneous
Plasmodium berghei [23] = test: Antimalarial activity against trophozoite-induced Plasmodium berghei infected in mouse assessed as daily dose required to suppression of 90% parasite infection administered with diet for 6 days; assay type: functional
[24] = tested on: Mycobacterium tuberculosis; test: Antibacterial activity against Mycobacterium tuberculosis H37Ra by gradient plate test; assay type: functional
Plasmodium berghei [25] = test: Antimalarial activity against Plasmodium berghei infected in mouse assessed as disease cure from parasite infection at 40 mg/kg, sc administered 72 hrs after infection; assay type: functional, organism-based; design: dose 40 mg/kg
Plasmodium berghei [26] = test: Antimalarial activity against Plasmodium berghei infected in mouse assessed as disease cure from parasite infection at 80 mg/kg, sc administered 72 hrs after infection; assay type: functional, organism-based; design: dose 80 mg/kg
Plasmodium berghei [27] = test: Antimalarial activity against Plasmodium berghei infected in mouse assessed as disease cure from parasite infection at 20 mg/kg, sc administered 72 hrs after infection; assay type: functional, organism-based; design: dose 20 mg/kg
Plasmodium berghei [28] = test: Antimalarial activity against Plasmodium berghei infected in mouse assessed as increase in mean survival days of host at 1.25 mg/kg, sc administered 72 hrs after infection relative to control; assay type: functional; settings: route subcutaneous
Plasmodium berghei [29] = test: Antimalarial activity against Plasmodium berghei infected in mouse assessed as disease cure from parasite infection at 10 mg/kg, sc administered 72 hrs after infection; assay type: functional, organism-based; design: dose 10 mg/kg
Plasmodium berghei [30] = test: Antimalarial activity against Plasmodium berghei infected in mouse assessed as increase in mean survival days of host at 2.5 mg/kg, sc administered 72 hrs after infection relative to control; assay type: functional; settings: route subcutaneous
Plasmodium berghei [31] = test: Antimalarial activity against Plasmodium berghei infected in mouse assessed as disease cure from parasite infection at 640 mg/kg, sc administered 72 hrs after infection; assay type: functional, organism-based; design: dose 640 mg/kg
Plasmodium berghei [32] = test: Antimalarial activity against Plasmodium berghei infected in mouse assessed as disease cure from parasite infection at 5 mg/kg, sc administered 72 hrs after infection; assay type: functional, organism-based; design: dose 5 mg/kg

## Nc1nc(N)c2cc(Sc3ccccc3)ccc2n1
Plasmodium berghei [1]
  Ratio: 9.1
Plasmodium gallinaceum [2]
  MST: 6.2 days
Plasmodium berghei [3]
  MST: 14 days
Plasmodium berghei [4]
  MST: 3.3 days
Staphylococcus aureus [5]
  MIC: < 0.25 µg/mL
Plasmodium berghei [6]
  Activity: Active
Shigella sonnei
  MIC: < 0.25 µg/mL
Plasmodium berghei [7]
  Activity: Active
Plasmodium gallinaceum [8]
  MST: 6.4 days
Pseudomonas aeruginosa
  MIC: > 25 µg/mL
Plasmodium berghei [9]
  MST: 14.7 days
Plasmodium berghei [10]
  MST: 1.1 days
Plasmodium berghei [11]
  MST: 9.7 days
Staphylococcus aureus [12]
  MIC: < 0.25 µg/mL
Gallus gallus [13]
  Activity: Toxic
Plasmodium gallinaceum [14]
  MST: 2.4 days
Enterococcus faecalis
  MIC: < 0.25 µg/mL
Escherichia coli
  MIC: < 0.25 µg/mL
Gallus gallus [15]
  Activity: Toxic
Plasmodium gallinaceum [16]
  MST: 7.8 days
Plasmodium berghei [17]
  MST: 4.7 days
Plasmodium berghei [18]
  MST: 6.3 days
Plasmodium gallinaceum [19]
  MST: 5.6 days
Plasmodium gallinaceum [20]
  MST: 11.4 days
Plasmodium gallinaceum [21]
  MST: 1.6 days
Plasmodium gallinaceum [22]
  MST: 0 days
Plasmodium berghei [23]
  SD90: 8.2 mg/kg/day

## Nc1nc(N)c2c(Cl)c(Sc3ccc4ccccc4c3)ccc2n1
Plasmodium berghei [4]
  MST: 15.9 days
Staphylococcus aureus [5]
  MIC: 1.5 µg/mL (≈ 4.25 µM)
Plasmodium berghei [6]
  Activity: Active
Shigella sonnei
  MIC: > 25 µg/mL
Plasmodium berghei [7]
  Activity: Active
[24]
  MIC: 10 µg/mL (≈ 28.3 µM)
Pseudomonas aeruginosa
  MIC: > 25 µg/mL
Plasmodium berghei [10]
  MST: 12.7 days
Staphylococcus aureus [12]
  MIC: 5 µg/mL (≈ 14.2 µM)
Enterococcus faecalis
  MIC: < 0.25 µg/mL
Escherichia coli
  MIC: 10 µg/mL (≈ 28.3 µM)
Plasmodium berghei [25]
  Activity: Active
Plasmodium berghei [17]
  MST: 15.9 days
Plasmodium berghei [26]
  Activity: Active
Plasmodium berghei [27]
  Activity: Active
Plasmodium berghei [28]
  MST: 5.5 days
Plasmodium berghei [29]
  Activity: Active
Plasmodium berghei [30]
  MST: 7.9 days
Plasmodium berghei [31]
  Activity: Active
Plasmodium berghei [32]
  Activity: Active
